Here are results for one compound from US4770997A, “Thermostable bilirubin oxidase and production process thereof” (Toyo Jozo Co., Ltd., priority 1985, dated 1988).

For assay [1], the system named is Bacillus licheniformis B-0891 (FERM BP-952) bilirubin oxidase (Invention Sample). The assay is described as follows: Km value of the thermostable bilirubin oxidase of this invention. Type of assay: biochemical. The following applies: at pH 8.0; substrate bilirubin. As to the method:
A reaction mixture (1.49 ml) of the above composition was placed in a small test tube. After heating it to 37° C., 0.01 ml of a 10 mM bilirubin solution was added to initiate the reaction. They were reacted at 37° C. for 10 minutes. After the reaction, 1.5 ml of 1% CPC (N-cetylpyridinium chloride) was added to terminate the reaction and the reaction mixture was subjected to the colorimetric analysis at 453 nm to determine its absorbance [S]. On the other hand, as a blank, a reaction mixture (1.44 ml) of the same type as the above-employed reaction mixture except for the exclusion of the enzyme solution was added with 0.01 ml of the bilirubin solution. The resultant mixture was incubated at 37° C. for 10 minutes precisely. Thereafter, 1.5 ml of 1% CPC and 0.05 ml of the bilirubin oxidase solution were added successively. The thus-prepared mixture was subjected to the colorimetric analysis at 453 nm to determine its absorbance [B]. The enzymatic activity is calculated in accordance with the following equation: [formula] wherein 1 unit (U) of the enzymatic activity is defined as the amount of enzyme which oxidizes 1 μmol of bilirubin per minute under the above-described conditions.

Assay [2] concerns the target T1, bilirubin oxidase originated from Myrothecium (Prior Art Sample No. 3) (Albifimbria verrucaria, UniProt Q12737).
T1 sequence (Q12737 39-572): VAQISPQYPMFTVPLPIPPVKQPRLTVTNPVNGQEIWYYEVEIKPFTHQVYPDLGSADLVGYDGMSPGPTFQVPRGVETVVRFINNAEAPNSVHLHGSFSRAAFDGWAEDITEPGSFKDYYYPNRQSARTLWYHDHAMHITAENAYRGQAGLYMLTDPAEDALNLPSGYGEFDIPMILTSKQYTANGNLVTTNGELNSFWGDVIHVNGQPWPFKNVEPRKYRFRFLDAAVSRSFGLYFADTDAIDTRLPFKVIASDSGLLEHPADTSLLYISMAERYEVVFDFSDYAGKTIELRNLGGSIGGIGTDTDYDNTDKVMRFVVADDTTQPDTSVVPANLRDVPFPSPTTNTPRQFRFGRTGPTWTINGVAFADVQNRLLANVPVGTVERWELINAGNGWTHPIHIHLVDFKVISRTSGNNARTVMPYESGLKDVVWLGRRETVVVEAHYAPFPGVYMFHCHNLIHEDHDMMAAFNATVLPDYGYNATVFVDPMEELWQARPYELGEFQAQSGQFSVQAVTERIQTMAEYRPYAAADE
The note with it: Prior Art Sample No. 3, originated from Myrothecium; substrate bilirubin; cited from earlier work.

SMILES strings stand for the structures.

As a reminder, the Km is the concentration of substrate that gives half-maximal velocity. With `C=CC1=C(C)/C(=C/c2[nH]c(Cc3[nH]c(/C=C4\NC(=O)C(C)=C4C=C)c(C)c3CCC(=O)O)c(CCC(=O)O)c2C)NC1=O` [Bilirubin], the Michaelis constant (Km) is 28.6 µM in assay [1] and 190 µM in assay [2].
